# In patent publication US20070270459A1, “Overactive bladder treating drug” (ASTELLAS PHARMA INC., priority 2002, published 2007):
# Counter-ions that a name gives are not always drawn.
# Tested on: overactive bladder model rat
# Experiment: Cystometry under nonanesthesized condition in overactive bladder model (BOO) rats
# Type: in vivo
# Text: (1) Preparation of Overactive Bladder Model Rats
# Wistar female rats (6 to 7 weeks old) were employed for the preparation. A catheter was inserted into the urinary bladder through the external urethral orifice under anesthesia with sodium pentobarbital in rats. After subjecting the abdominal region to the median section, the proximal urethra was ligated together with the catheter at 2 sites by a silk blade (5-0), and the catheter was removed.
# (2) Cystometry Under Nonanesthesized Condition
# At more than 6 weeks after surgery, the silk blade used for ligation of the urethra was removed under anesthesia with sodium pentobarbital. A catheter for infusion of physiological saline and for the measurement of the intravesical pressure was inserted into the urinary bladder through the top part of the urinary bladder and fixed. A catheter for administration of a drug was inserted into the jugular vein, and the rat was returned to a housing cage after recovery. At 2 days after surgery, the catheter inserted into the urinary bladder was connected to a syringe pump for continuous infusion of physiological saline (7-20 mL/hr) to induce the micturition reflex and to a pressure transducer to measure the intravesical pressure with a three way stopcock. After the micturition reflex was stabilized, physiological saline or a drug was administered through the catheter for administration of a drug inserted into the jugular vein.
# As the parameters evaluated, the frequency of contraction before micturition (the number of contractions for 10 min before starting of micturition), contraction pressure (mean contraction pressure for 10 min before starting of micturition), micturition pressure and interval of micturition were employed for the present test. The effect of a drug was evaluated on the basis of the inhibition ratio against the pre-dosing values (prolongation ratio in the micturition interval).
# Tamsulosin hydrochloride was administered intravenously in increasing the doses at a common ratio of about 3 (1, 3 and 10 μg/kg). The action of tamsulosin hydrochloride (3 μg/kg) in combination with Solifenacin succinate (3 mg/kg) on each parameter was also evaluated.
# Each test was performed at n=5, and the results are expressed as mean±standard error. Student's t-test and Tukey's test were used for comparison between 2 groups and among multiple groups, respectively.
compound,measurement,setting,value
"O=C(O[C@H]1CN2CCC1CC2)N1CCc2ccccc2[C@@H]1c1ccccc1 [solifenacin succinate, (+)-(1S,3′R)-quinuclidin-3′-yl 1-phenyl-1,2,3,4-tetrahydroisoquinoline-2-carboxylate]","interval of micturition, prolongation ratio","3 mg/kg i.v., alone",2.6%
"CCOc1ccccc1OCCN[C@H](C)Cc1ccc(OC)c(S(N)(=O)=O)c1 [tamsulosin hydrochloride, (R)(−)-5-[2-[[2-(o-ethoxyphenoxy)ethyl]amino]propyl]-2-methoxybenzene-sulfonamide]","interval of micturition, prolongation ratio","3 μg/kg i.v., alone",2.1%
same,micturition pressure,10 μg/kg intravenous,no influence
same,"interval of micturition, prolongation ratio","10 μg/kg intravenous, vs pre-dosing value",9.2%
same,frequency of contraction before micturition (number of contractions for 10 min before starting of micturition),"tamsulosin hydrochloride 1, 3 and 10 μg/kg intravenous, vs pre-dosing values, n=5, FIG. 1A",inhibited in a dose-dependent manner
same,contraction pressure before micturition (mean contraction pressure for 10 min before starting of micturition),"tamsulosin hydrochloride 1, 3 and 10 μg/kg intravenous, vs pre-dosing values, n=5, FIG. 1B",inhibited in a dose-dependent manner
same,micturition pressure,"tamsulosin hydrochloride alone, comparison arm of the combination test (3 μg/kg i.v.)",no effect
